# Laboratory results taken from PMC11864979, “First-in-class ultralong-target-residence-time p38α inhibitors as a mitosis-targeted therapy for colorectal cancer” (Nature Cancer, 2025).
# Where two headings read alike, the source gives them in different places.
# Assays:
# Assay in all cases: selectivity profiling in a panel of 340 wild-type kinases (Reaction Biology Europe)
# Format in all cases: binding
# 340 wild-type kinases [1] = target: T1, 340 wild-type kinases (Homo sapiens, UniProt Q99558)
# T1 construct: purchased Reaction Biology Europe
# 340 wild-type kinases [2] = target: T2, 340 wild-type kinases (Homo sapiens, UniProt Q96PY6)
# T2 construct: purchased Reaction Biology Europe
# T2 sequence (Q96PY6 1-1258): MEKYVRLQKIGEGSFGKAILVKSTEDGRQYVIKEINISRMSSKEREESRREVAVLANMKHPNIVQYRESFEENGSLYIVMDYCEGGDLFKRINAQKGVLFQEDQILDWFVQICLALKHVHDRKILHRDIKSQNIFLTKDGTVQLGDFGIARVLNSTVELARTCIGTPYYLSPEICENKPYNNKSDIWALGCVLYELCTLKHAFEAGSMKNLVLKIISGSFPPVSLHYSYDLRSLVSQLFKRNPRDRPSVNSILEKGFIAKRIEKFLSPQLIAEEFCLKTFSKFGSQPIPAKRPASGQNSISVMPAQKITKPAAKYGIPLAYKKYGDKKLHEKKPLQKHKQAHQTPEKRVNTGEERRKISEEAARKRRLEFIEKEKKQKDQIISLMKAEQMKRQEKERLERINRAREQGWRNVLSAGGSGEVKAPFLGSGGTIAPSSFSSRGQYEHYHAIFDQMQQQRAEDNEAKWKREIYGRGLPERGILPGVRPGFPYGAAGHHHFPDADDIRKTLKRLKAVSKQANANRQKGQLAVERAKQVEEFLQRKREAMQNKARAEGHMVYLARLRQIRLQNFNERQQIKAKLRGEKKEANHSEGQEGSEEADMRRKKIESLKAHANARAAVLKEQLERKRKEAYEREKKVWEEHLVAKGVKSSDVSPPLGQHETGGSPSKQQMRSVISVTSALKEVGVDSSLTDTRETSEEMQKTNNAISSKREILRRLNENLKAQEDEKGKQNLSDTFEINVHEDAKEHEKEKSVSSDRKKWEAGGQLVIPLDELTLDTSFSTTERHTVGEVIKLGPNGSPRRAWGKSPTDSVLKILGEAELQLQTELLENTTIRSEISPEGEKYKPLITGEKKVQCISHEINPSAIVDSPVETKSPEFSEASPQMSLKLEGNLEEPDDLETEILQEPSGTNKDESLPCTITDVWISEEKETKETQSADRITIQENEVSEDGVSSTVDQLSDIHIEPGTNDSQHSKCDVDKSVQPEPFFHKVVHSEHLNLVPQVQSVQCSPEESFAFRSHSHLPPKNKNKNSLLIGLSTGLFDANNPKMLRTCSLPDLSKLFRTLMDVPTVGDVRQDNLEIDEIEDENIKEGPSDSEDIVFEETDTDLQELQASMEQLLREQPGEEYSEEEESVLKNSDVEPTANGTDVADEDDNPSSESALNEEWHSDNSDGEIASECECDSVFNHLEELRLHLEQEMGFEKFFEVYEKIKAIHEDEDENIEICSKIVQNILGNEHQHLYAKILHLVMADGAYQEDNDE
# 340 wild-type kinases [3] = target: T3, 340 wild-type kinases (Homo sapiens, UniProt Q9H093)
# T3 construct: purchased Reaction Biology Europe
# T3 sequence (Q9H093 1-628): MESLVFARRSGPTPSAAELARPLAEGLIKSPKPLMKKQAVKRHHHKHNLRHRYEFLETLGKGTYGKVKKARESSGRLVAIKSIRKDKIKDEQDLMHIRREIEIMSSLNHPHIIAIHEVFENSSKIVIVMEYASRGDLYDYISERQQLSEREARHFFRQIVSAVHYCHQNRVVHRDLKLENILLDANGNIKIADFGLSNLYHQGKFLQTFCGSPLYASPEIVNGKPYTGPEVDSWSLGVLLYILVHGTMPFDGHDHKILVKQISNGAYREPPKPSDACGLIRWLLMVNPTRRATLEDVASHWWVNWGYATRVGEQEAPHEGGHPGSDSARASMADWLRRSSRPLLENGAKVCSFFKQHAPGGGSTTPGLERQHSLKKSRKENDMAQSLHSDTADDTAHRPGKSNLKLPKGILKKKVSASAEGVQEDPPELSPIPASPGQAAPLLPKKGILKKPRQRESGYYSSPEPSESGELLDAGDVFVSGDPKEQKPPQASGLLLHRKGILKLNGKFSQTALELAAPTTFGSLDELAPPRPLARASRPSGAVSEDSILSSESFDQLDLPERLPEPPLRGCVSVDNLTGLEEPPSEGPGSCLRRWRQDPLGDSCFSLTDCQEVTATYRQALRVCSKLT
# 340 wild-type kinases [4] = target: T4, 340 wild-type kinases (Homo sapiens, UniProt P41240)
# T4 construct: purchased Reaction Biology Europe
# T4 sequence (P41240 whole entry): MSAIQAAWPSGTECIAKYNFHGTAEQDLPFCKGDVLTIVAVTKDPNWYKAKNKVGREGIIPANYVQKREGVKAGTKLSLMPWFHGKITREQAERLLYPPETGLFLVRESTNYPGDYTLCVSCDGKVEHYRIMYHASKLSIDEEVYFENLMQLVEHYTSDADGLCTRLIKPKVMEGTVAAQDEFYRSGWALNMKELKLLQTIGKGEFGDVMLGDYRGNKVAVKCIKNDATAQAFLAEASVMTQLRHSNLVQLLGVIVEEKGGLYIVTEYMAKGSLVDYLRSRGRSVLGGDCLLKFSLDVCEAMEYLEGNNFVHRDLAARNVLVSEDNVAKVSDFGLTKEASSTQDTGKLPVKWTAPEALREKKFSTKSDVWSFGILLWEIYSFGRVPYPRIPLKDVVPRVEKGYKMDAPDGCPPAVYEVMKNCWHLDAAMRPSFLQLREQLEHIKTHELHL
# T1 sequence (Q99558 whole entry): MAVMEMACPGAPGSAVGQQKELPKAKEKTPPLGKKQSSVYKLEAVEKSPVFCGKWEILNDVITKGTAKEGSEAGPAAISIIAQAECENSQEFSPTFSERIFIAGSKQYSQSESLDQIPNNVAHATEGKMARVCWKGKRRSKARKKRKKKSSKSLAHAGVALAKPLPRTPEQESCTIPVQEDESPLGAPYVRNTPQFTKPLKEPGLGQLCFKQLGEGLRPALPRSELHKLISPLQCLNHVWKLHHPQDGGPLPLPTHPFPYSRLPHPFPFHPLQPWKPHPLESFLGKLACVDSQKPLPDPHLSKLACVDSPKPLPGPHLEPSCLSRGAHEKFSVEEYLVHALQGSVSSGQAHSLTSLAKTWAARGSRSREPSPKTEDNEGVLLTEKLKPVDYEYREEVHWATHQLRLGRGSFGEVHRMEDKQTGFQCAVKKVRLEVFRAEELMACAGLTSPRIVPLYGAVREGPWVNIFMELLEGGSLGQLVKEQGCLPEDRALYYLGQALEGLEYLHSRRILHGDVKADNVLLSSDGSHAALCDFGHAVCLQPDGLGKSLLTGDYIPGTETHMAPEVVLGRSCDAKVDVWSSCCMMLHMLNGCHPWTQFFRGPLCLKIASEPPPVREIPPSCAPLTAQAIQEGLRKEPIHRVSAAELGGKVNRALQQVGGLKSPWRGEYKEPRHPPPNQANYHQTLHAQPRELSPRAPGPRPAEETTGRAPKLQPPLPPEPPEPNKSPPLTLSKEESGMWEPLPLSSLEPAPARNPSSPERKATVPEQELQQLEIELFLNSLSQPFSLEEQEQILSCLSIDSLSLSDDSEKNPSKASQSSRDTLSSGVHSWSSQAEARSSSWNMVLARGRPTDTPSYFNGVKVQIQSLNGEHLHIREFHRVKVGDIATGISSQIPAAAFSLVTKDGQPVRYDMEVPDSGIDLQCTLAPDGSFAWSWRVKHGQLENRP
structure (smiles),measurement,setting,value
CNC(=O)c1ccc2c(c1)C(=O)c1ccc(Nc3ccc(F)c(NC(=O)C4CC4)c3)cc1CC2 [Compound 2015],remaining activity at 0.2 µM,"340 wild-type kinases [1]; 0.2 µM 2015, read-out: NIK residual activity",113%
same,remaining activity at 1 µM,"340 wild-type kinases [1]; 1 µM 2015, read-out: NIK residual activity",90.5%
same,remaining activity at 0.2 µM,"340 wild-type kinases [1]; NIK, 0.2 µM, read-out: residual activity",113%
same,remaining activity at 1 µM,"340 wild-type kinases [1]; NIK, 1 µM, read-out: residual activity",90.5%
same,remaining activity at 1 µM,"340 wild-type kinases [2]; 1 µM 2015, read-out: NEK1 residual activity",81.3%
same,remaining activity at 1 µM,"340 wild-type kinases [2]; NEK1, 1 µM, read-out: residual activity",81.3%
same,remaining activity at 0.2 µM,340 wild-type kinases [2]; read-out: NEK1 residual activity,86.5%
same,remaining activity at 0.2 µM,340 wild-type kinases [2]; read-out: residual activity,86.5%
same,remaining activity at 0.2 µM,"340 wild-type kinases [3]; 0.2 µM 2015, read-out: SNARK residual activity",97%
same,remaining activity at 1 µM,"340 wild-type kinases [3]; 1 µM 2015, read-out: SNARK residual activity",92.5%
same,remaining activity at 0.2 µM,"340 wild-type kinases [3]; SNARK, 0.2 µM, read-out: residual activity",97%
same,remaining activity at 1 µM,"340 wild-type kinases [3]; SNARK, 1 µM, read-out: residual activity",92.5%
same,remaining activity at 0.2 µM,"340 wild-type kinases [4]; 0.2 µM 2015, read-out: CSK residual activity",114%
same,remaining activity at 1 µM,"340 wild-type kinases [4]; 1 µM 2015, read-out: CSK residual activity",93.1%
same,remaining activity at 0.2 µM,"340 wild-type kinases [4]; CSK, 0.2 µM, read-out: residual activity",114%
same,remaining activity at 1 µM,"340 wild-type kinases [4]; CSK, 1 µM, read-out: residual activity",93.1%
